Experimental data published in patent US20240270821A1, “GIP/GLP1/GCG TRI-RECEPTOR AGONISTS AND USES THEREOF” (priority 2023, published 2024).
Read-outs that look alike come from different tables or passages of the source. Starred links: 1 amine or outer side, 2 acyl side, 3 side chain; linkers in the order of their positions; H or OH if unused. Non-standard residues stand in square brackets, D forms with d. Groups on a side chain read outwards from the residue. *: point of attachment. C20 diacid = O=C(O)CCCCCCCCCCCCCCCCCCC(=O)*; C18 diacid = O=C(O)CCCCCCCCCCCCCCCCC(=O)*; γGlu = O=C(O)[C@H](CCC(=O)[*:2])N[*:1]; 4Pal = N[C@@H](Cc1ccncc1)C(=O)O; αMeL = CC(C)C[C@](C)(N)C(=O)O; Orn = NCCC[C@H](N)C(=O)O; AEEA = NCCOCCOCC(=O)O; Aib = CC(C)(N)C(=O)O

Key:
Format in all cases: cell-based
hGcgR = hGcgR (Homo sapiens, UniProt P47871); test: Functional cAMP activation in the presence of 0.1% casein (no HSA);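 further: intracellular cAMP rise after 30 min at 37 °C, read by HTRF against a cAMP standard curve, scaled from buffer only (0%) to maximal control ligand response (100%)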
Sequence of hGcgR (P47871 26-477): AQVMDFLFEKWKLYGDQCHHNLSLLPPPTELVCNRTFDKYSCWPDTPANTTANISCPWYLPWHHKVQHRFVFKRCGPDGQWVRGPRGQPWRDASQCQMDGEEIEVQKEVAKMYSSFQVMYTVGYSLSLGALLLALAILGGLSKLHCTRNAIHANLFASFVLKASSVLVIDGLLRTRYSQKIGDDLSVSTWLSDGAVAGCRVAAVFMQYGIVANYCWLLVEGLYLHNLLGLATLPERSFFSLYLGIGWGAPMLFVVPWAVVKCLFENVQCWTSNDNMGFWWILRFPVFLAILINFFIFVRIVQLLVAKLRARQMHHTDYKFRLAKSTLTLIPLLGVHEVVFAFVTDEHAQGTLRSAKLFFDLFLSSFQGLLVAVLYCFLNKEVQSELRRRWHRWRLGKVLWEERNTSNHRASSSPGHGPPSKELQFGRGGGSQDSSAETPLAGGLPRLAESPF

human GcgR = human GcgR (Homo sapiens, UniProt P47871); test: Functional cAMP activity in the presence of 1% HSA
Sequence of human GcgR (P47871 26-477): as above

hGIPR [1] = biological target: T1, hGIPR (Homo sapiens, UniProt P48546); test: Functional cAMP activation in the presence of 0.1% casein (no HSA);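 further: intracellular cAMP rise after 30 min at 37 °C read by HTRF against a standard curve, scaled between buffer alone (0%) and top control ligand concentration (100%), four-parameter fit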
T1 sequence (P48546 22-466): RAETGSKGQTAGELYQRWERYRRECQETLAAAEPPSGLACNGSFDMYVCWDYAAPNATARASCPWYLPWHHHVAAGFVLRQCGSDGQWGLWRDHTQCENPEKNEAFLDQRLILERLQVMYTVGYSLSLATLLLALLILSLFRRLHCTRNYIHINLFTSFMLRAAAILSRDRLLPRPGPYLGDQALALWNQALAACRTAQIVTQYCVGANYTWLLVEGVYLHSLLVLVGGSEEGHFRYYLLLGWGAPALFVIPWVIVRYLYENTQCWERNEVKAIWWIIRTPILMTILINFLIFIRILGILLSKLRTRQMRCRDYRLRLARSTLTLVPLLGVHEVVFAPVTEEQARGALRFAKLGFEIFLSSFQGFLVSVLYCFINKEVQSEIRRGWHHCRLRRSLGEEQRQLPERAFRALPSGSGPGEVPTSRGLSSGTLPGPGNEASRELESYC

hGLP-1R [2] = biological target: T2, hGLP-1R (Homo sapiens, UniProt P43220); test: Functional cAMP activity in the presence of 1% HSA
T2 sequence (P43220 24-463): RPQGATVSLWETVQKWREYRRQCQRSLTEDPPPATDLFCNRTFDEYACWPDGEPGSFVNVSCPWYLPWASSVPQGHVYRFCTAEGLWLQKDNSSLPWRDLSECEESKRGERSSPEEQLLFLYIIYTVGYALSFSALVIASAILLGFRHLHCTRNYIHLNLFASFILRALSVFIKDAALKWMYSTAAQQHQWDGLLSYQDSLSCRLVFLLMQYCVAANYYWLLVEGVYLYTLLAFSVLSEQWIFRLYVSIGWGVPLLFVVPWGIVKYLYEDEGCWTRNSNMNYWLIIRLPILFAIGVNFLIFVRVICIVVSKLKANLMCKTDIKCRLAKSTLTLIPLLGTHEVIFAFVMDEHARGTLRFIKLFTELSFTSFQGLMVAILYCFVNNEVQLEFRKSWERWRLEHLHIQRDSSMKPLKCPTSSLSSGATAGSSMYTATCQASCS

hGLP-1R [3] = biological target: T2, hGLP-1R; test: Functional cAMP activation in the presence of 0.1% casein (no HSA);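 further: intracellular cAMP rise after 30 min at 37 °C read by HTRF, normalized between buffer only (0%) and maximal control ligand (100%), four-parameter variable-slope fit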
human GLP1-R = human GLP1-R (Homo sapiens, UniProt P43220); test: GLP1-R internalization assay in HEK293 cells; conditions: for Internalization % TOP: normalized to maximum concentration of GLP-1 (100%)
Sequence of human GLP1-R (P43220 24-463): as above

hGIPR [4] = biological target: T1, hGIPR; test: Functional cAMP activity in the presence of 1% HSA
[5] = in the presence of 0.1% casein (no HSA), geometric mean, read-out: Relative cAMP EC50, hGcgR
[6] = in the presence of 0.1% casein (no HSA), geometric mean, read-out: Relative cAMP EC50, hGIPR
[7] = read-out: cAMP Rel EC50, hGLP-1R
[8] = in the presence of 0.1% casein (no HSA), geometric mean, read-out: Relative cAMP EC50, hGLP-1R
[9] = HEK293 cells expressing SNAP-GLP-1R, read-out: GLP1R Internalization EC50

Substance | EC50 (hGcgR; [5]) [nM] | EC50 (human GcgR; read-out: cAMP Rel EC50, hGcgR) [nM] | EC50 (hGIPR [1]; [6]) [nM] | EC50 (hGLP-1R [2]; [7]) [nM] | EC50 (hGLP-1R [3]; [8]) [nM] | EC50 (human GLP1-R; [9]) [nM] | Internalization % TOP (human GLP1-R) [%] | EC50 (hGIPR [4]; read-out: cAMP Rel EC50, hGIPR) [nM] | EC50 (hGcgR) [nM] | EC50 (human GcgR) [nM] | EC50 (hGIPR [1]) [nM] | EC50 (hGLP-1R [2]) [nM] | EC50 (hGLP-1R [3]) [nM] | EC50 (human GLP1-R) [nM] | EC50 (hGIPR [4]) [nM]
H-Y[Aib]QGTFTSD[4Pal]SK[αMeL]LDKK([AEEA-γGlu-C18 diacid])AQ[Aib]AFIEYLIA[Aib]GESSGAPPPSGS-NH2 [Example 285] | 2.32 | 409 | 0.0652 | 365 | 2.87 | 59.9 | 73.6 | 8.22 |  |  |  |  |  |  | 
H-Y[Aib]QGTFTSDFS[Orn][αMeL]LDKK([AEEA-AEEA-γGlu-C18 diacid])AQ[Aib]AFIEYLLE[dA]GPSSGEPPPSGQ-NH2 [Example 157] | 4.16 | 838 | 0.183 | 496 | 3.04 | 60.3 | 53.3 | 22.2 |  |  |  |  |  |  | 
H-Y[Aib]QGTFTSDFS[Orn][αMeL]LDKK([AEEA-γGlu-C18 diacid])AQ[Aib]AFIEYLLE[Aib]GPSSGAPPPSGS-NH2 [Example 74] | 2.53 | 709 | 0.0708 | 627 | 3.32 | 72.7 | 53.3 | 15.9 |  |  |  |  |  |  | 
H-Y[Aib]QGTFTSDFS[Orn][αMeL]LDKK([AEEA-AEEA-γGlu-C20 diacid])AQ[Aib]AFIEYLLE[Aib]GPSSGEPPPGEG-NH2 [Example 69] | 4.75 | 387 | 0.136 | 279 | 3.25 | 71.9 | 58.2 | 25.6 |  |  |  |  |  |  | 
H-Y[Aib]QGTFTSDFS[Orn][αMeL]LDKK([AEEA-γGlu-C18 diacid])AQ[Aib]AFIEWLLEGGHSSGAPPPSGE-NH2 [Example 122] | 3.95 | 548 | 0.189 | 468 | 3.93 | 57.4 | 43.7 | 32.6 |  |  |  |  |  |  | 
H-Y[Aib]QGTFTSDFS[Orn][αMeL]LDKK([AEEA-γGlu-C18 diacid])AQ[Aib]AFIEYLLE[Aib]GPSSG[Aib]PPPSGS-NH2 [Example 239] | 2.14 | 693 | 0.0503 | 419 | 2.9 | 72.6 | 42.9 | 12 |  |  |  |  |  |  | 
H-Y[Aib]QGTFTSDFSK[αMeL]LDKK([AEEA-γGlu-C18 diacid])AQ[Aib]AFIEYLLE[Aib]GPSSGAPPPSEG-NH2 [Example 57] | 4.37 | 113 | 0.098 | 42.7 | 3.06 | 76.6 | 73.1 | 3.78 |  |  |  |  |  |  | 
H-Y[Aib]QGTFTSDFSK[αMeL]LDKK([AEEA-γGlu-C20 diacid])AQ[Aib]AFIEWLLEGGPSSGAPPPSEG-NH2 [Example 37] | 6.83 | 1870 | 0.207 | 514 | 1.66 | 51.6 | 68.3 | 56.4 |  |  |  |  |  |  | 
H-Y[Aib]QGTFTSDFS[Orn][αMeL]LDKK([AEEA-γGlu-C18 diacid])AQ[Aib]AFIEYLLAGGPSSGEPPPSGE-NH2 [Example 97] | 6.73 | 1270 | 0.176 | 605 | 3.23 | 51.9 | 50.7 | 23.9 |  |  |  |  |  |  | 
H-Y[Aib]QGTFTSDFS[Orn][αMeL]LDKK([AEEA-γGlu-C18 diacid])AQ[Aib]AFIEYLLEGGPSSGAPPPGGT-NH2 [Example 158] | 3.72 | 325 | 0.245 | 184 | 2.49 | 104 | 52.4 | 24.7 |  |  |  |  |  |  | 
H-Y[Aib]QGTFTSDFSK[αMeL]LDKK([AEEA-γGlu-C20 diacid])AQ[Aib]AFIEYLLE[Aib]GPSSGAPPPGGS-NH2 [Example 43] | 2.71 | 850 | 0.101 | 539 | 1.55 | 58.2 | 68.3 | 29.6 |  |  |  |  |  |  | 
H-Y[Aib]QGTFTSDFSK[αMeL]LDKK([AEEA-AEEA-γGlu-C20 diacid])AQ[Aib]AFIEYLLEGGPSSGAPPPGEG-NH2 [Example 17] | 8.33 | 2040 | 0.317 | 543 | 2.96 | 66.2 | 72.2 | 91.7 |  |  |  |  |  |  | 
H-Y[Aib]QGTFTSDFSK[αMeL]LDKK([AEEA-γGlu-C20 diacid])AQ[Aib]AFIEYLLAGGPSSGEPPPGEG-NH2 [Example 31] | 8.42 | 1750 | 0.249 | 737 | 2.16 | 91.9 | 67.4 | 63.6 |  |  |  |  |  |  | 
H-Y[Aib]QGTFTSDFSR[αMeL]LDKK([AEEA-γGlu-C20 diacid])AQ[Aib]AFIEYLLE[Aib]GPSSGAPPPGGS-NH2 [Example 42] |  |  |  |  |  |  | 58.3 |  | 5.83 | 1520 | 0.115 | 700 | 2.17 | 61.4 | 32.3
H-Y[Aib]QGTFTSDFS[Orn][αMeL]LDKK([AEEA-AEEA-γGlu-C18 diacid])AQ[Aib]AFIEYLLE[dA]GPSSGEPPPSGE-NH2 [Example 117] | 4.75 | 867 | 0.267 | 524 | 6.4 | 45.5 | 51 | 29.9 |  |  |  |  |  |  | 
H-Y[Aib]QGTFTSDFS[Orn][αMeL]LDKK([AEEA-AEEA-γGlu-C20 diacid])AQ[Aib]AFIEYLLE[Aib]GPSSGAPPPGEG-NH2 [Example 70] |  |  |  |  |  |  | 61.3 |  | 6.04 | 717 | 0.102 | 620 | 2.71 | 60 | 27.4
H-Y[Aib]QGTFTSDFS[Orn][αMeL]LDKK([AEEA-γGlu-C18 diacid])AQ[Aib]AFIEYLLAGGPSSGAPPPSGD-NH2 [Example 85] | 7.63 | 1270 | 0.157 | 387 | 2.73 | 326 | 48.3 | 22.1 |  |  |  |  |  |  | 
H-Y[Aib]QGTFTSDFS[Orn][αMeL]LDKK([AEEA-γGlu-C18 diacid])AQ[Aib]AFIEYLLE[Aib]G[4Pal]SSGAPPPSGE-NH2 [Example 248] | 3.36 | 241 | 0.0861 | 438 | 3.17 | 67.4 | 39.5 | 10.6 |  |  |  |  |  |  | 
